Test results taken from PubChem BioAssay (NCI).
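All cell lines were grown in 96-well plates and treated with compound for 48 hours. Definition used: TGI = concentration required for complete inhibition of growth.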

Key:
Experiment in all cases: NCI anticancer screen, dose series, 48 h
OVCAR-3 ovarian = tested on: OVCAR-3 ovarian
U251 CNS = tested on: U251 CNS
MOLT-4 leukemia = tested on: MOLT-4 leukemia
SK-MEL-5 melanoma = tested on: SK-MEL-5 melanoma
EKVX NSCLC = tested on: EKVX NSCLC
SW-620 colon = tested on: SW-620 colon
HCT-116 colon = tested on: HCT-116 colon
OVCAR-4 ovarian = tested on: OVCAR-4 ovarian
NCI-H226 lung = tested on: NCI-H226 lung
CCRF-CEM leukemia = tested on: CCRF-CEM leukemia
HT29 colon = tested on: HT29 colon
M19-MEL melanoma = tested on: M19-MEL melanoma
NCI-H522 lung = tested on: NCI-H522 lung
KM12 colon = tested on: KM12 colon
IGROV1 ovarian = tested on: IGROV1 ovarian
OVCAR-8 ovarian = tested on: OVCAR-8 ovarian
786-0 renal = tested on: 786-0 renal
HL-60(TB) leukemia = tested on: HL-60(TB) leukemia
LXFL 529 NSCLC = tested on: LXFL 529 NSCLC
SF-268 CNS = tested on: SF-268 CNS
UACC-62 melanoma = tested on: UACC-62 melanoma
SNB-78 CNS = tested on: SNB-78 CNS
OVCAR-5 ovarian = tested on: OVCAR-5 ovarian
RPMI-8226 leukemia = tested on: RPMI-8226 leukemia
NCI-H23 lung = tested on: NCI-H23 lung
SF-295 CNS = tested on: SF-295 CNS
A549 NSCLC = tested on: A549 NSCLC
DMS 114 small cell lung = tested on: DMS 114 small cell lung
SR leukemia = tested on: SR leukemia
LOX IMVI melanoma = tested on: LOX IMVI melanoma
SK-OV-3 ovarian = tested on: SK-OV-3 ovarian
HOP-62 NSCLC = tested on: HOP-62 NSCLC
SN12C renal = tested on: SN12C renal
NCI-H460 lung = tested on: NCI-H460 lung
CAKI-1 renal = tested on: CAKI-1 renal
HOP-92 NSCLC = tested on: HOP-92 NSCLC
UO-31 renal = tested on: UO-31 renal
HCT-15 colon = tested on: HCT-15 colon
COLO 205 colon = tested on: COLO 205 colon
SF-539 CNS = tested on: SF-539 CNS
DMS 273 small cell lung = tested on: DMS 273 small cell lung
ACHN renal = tested on: ACHN renal
SK-MEL-2 melanoma = tested on: SK-MEL-2 melanoma
XF 498 CNS = tested on: XF 498 CNS
DLD-1 colon = tested on: DLD-1 colon
K-562 leukemia = tested on: K-562 leukemia
M14 melanoma = tested on: M14 melanoma
UACC-257 melanoma = tested on: UACC-257 melanoma
KM20L2 colon = tested on: KM20L2 colon
MALME-3M melanoma = tested on: MALME-3M melanoma
A498 renal = tested on: A498 renal
HCC-2998 colon = tested on: HCC-2998 colon
RXF 393 renal = tested on: RXF 393 renal
TK-10 renal = tested on: TK-10 renal
HOP-18 NSCLC = tested on: HOP-18 NSCLC
SK-MEL-28 melanoma = tested on: SK-MEL-28 melanoma
SNB-75 CNS = tested on: SNB-75 CNS
SNB-19 CNS = tested on: SNB-19 CNS
RXF-631 renal = tested on: RXF-631 renal

Measured: TGI

CC1(C)CCc2cc3c(cc2O1)OC(C)(C)C1c2c(ccc4c2CCC(C)(C)O4)OC31 (configuration not stated)
not listed: UACC-257 melanoma | KM20L2 colon | MALME-3M melanoma | A498 renal | HCC-2998 colon | RXF 393 renal | TK-10 renal | HOP-18 NSCLC | SK-MEL-28 melanoma | SNB-75 CNS | SNB-19 CNS | RXF-631 renal
> 100 µM: all other assays above

C(=C1\CCC/C(=C/c2ccccc2)C1=NNc1ccccc1)/c1ccccc1
not listed: NCI-H226 lung | SR leukemia | CAKI-1 renal | XF 498 CNS
> 100 µM: all other assays above
